Data from patent publication US20250367129A1, “Lipid Compounds and Uses Thereof” (Pfizer Inc., priority 2022, published 2025).

Legend:
[1] = tested on: HEK293F cells; experiment: In vitro expression of novel ionizable lipid nanoparticles, high content imaging (CA HA modFlu mRNA); assay type: cell-based; conditions: LNP with CA HA modFlu mRNA
How it was run: (§1)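 Lipid nanoparticles of ionizable lipid, cholesterol, DSPC and ALC-0159 (about 46.3:42.7:9.4:1.6 molar), N:P about 6:1, carrying mRNA, dosed onto cells overnight at 37° C., 5% CO2. Cells fixed and stained with Hoechst plus antibody to encoded protein; nuclei and antigen-positive cells counted by high-content imaging.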

[2] = tested on: Hela cells; experiment: as above; assay type: cell-based; conditions: LNP with CA HA modFlu mRNA
How it was run: as §1

[3] = LNP size and size distribution by dynamic light scattering (WISC HA modFlu mRNA LNPs); assay type: physicochemical; conditions: DLS; for Size (nm): LNP of the ionizable lipid:cholesterol:DSPC:PEG-Lipid about 46.3:42.7:9.4:1.6 with WISC HA modFlu mRNA; for PDI: LNP with WISC HA modFlu mRNA
Method: (§2) Lipid nanoparticles were prepared and tested according to the general procedures described in U.S. Pat. No. 9,737,619 (PCT Pub. No. WO2015/199952) and U.S. Pat. No. 10,166,298 (PCT Pub. No. WO 2017/075531) and PCT Pub. No. WO2020/146805. The novel ionizable lipids of the invention, cholesterol, DSPC and PEG-Lipid were solubilized in Ethanol at a molar ratio of about 46.3:42.7:9.4:1.6. Lipid nanoparticles (LNP) were prepared at a total lipid to mRNA ratio of about 23:1. In short, the mRNA (WISC HA modFlu) was diluted in buffer. Syringe pumps were used to mix the lipid solution with the mRNA solution. The ethanol was removed, and external buffer replaced with another buffer (e.g., Tris) by dialysis. Finally, the lipid nanoparticle size and size distribution were determined by dynamic light scattering using an Unchained Labs Stunner (Unchained Labs, USA). RNA encapsulation efficiency was determined using the Quant-iT RiboGreen RNA assay (Life Technologies, USA). Briefly, LNPs were incubated with RiboGreen dye (200-fold dilution per manufactures' instruction) in the presence and absence of 1% Triton-X 100 and fluorescence intensities (Excitation/Emission: 485/528 […]) were measured for unencapsulated RNA and total RNA after release from LNPs by Triton-X 100.

[4] = LNP size and polydispersity index by Malvern Zetasizer dynamic light scattering (CA HA modFlu mRNA LNPs); assay type: physicochemical; conditions: DLS; for Size (nm): LNP of the ionizable lipid:cholesterol:DSPC:ALC-0159 about 46.3:42.7:9.4:1.6, N:P about 6:1, CA HA modFlu mRNA; for PDI: LNP with CA HA modFlu mRNA
How it was run: (§3)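 LNPs of ionizable lipid:cholesterol:DSPC:ALC-0159 (molar ratio about 46.3:42.7:9.4:1.6) formed by syringe-pump mixing of ethanolic lipids with mRNA at N:P about 6:1, then dialysed into buffer (e.g., Tris) and filtered. Size and PDI measured by DLS; total RNA and encapsulation efficiency by RiboGreen.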

[5] = Encapsulation efficiency, RiboGreen RNA quantitation assay (CA HA modFlu mRNA LNPs); assay type: physicochemical; conditions: LNP with CA HA modFlu mRNA
How it was run: as §3

[6] = RNA encapsulation efficiency, Quant-iT RiboGreen RNA assay (WISC HA modFlu mRNA LNPs); assay type: physicochemical; conditions: LNP with WISC HA modFlu mRNA
Method: as §2

[7] = tested on: Hek293T cells; experiment: In vitro expression of encoded gene of interest after LNP dosing, high content imaging (WISC HA modFlu mRNA); assay type: cell-based; conditions: LNP with WISC HA modFlu mRNA, overnight incubation
Method: as §2
(§4) Plated Hek293T or Hela cells were dosed with lipid nanoparticles in a total volume of 40 μl cell culture media and incubated overnight at 37° C. and 5% CO2. After fixation with 4% paraformaldehyde in PBS cells were washed in PBS containing 0.3% Triton-X100 and 3% BSA (w/v), followed by nuclear staining with Hoechst and antibody staining for the encoded gene of interest. Nuclear count and identification of cells stained positive for gene of interest was done on an Opera Phenix high content imager (PerkinElmer, USA).

[8] = tested on: Hela cells; experiment: as above; assay type: cell-based; conditions: LNP with WISC HA modFlu mRNA, overnight incubation
Method: as §2, §4

SMILES | EC50 Hek293F (ng/well) [1] | EC50 Hela (ng/well) [2] | Size (nm) [3] | PDI [3] | Size (nm) [4] | PDI [4] | EE % [5] | EE % [6] | EC50 Hek293T (ng/well) [7] | EC50 Hela (ng/well) [8]
CCCCCCCC(CCCCCCC)C(=O)O[C@@H]1CC2(CCN(CCCCO)CC2)C[C@H]1OC(=O)C(CCCCCCC)CCCCCCC (racemic) [Example 51, rac-(2R,3R)-8-(4-Hydroxybutyl)-8-azaspiro[4.5]decane-2,3-diyl bis(2-heptylnonanoate)] | 0.27 ng/well | 0.64 ng/well | 72 nm | 0.03 | 58 nm | 0.030 | 99% | 96% | 5.3 ng/well | 10.7 ng/well
CCCCCCCC(CCCCCCC)C(=O)OCC1(COC(=O)C(CCCCCCC)CCCCCCC)CCC2(CCN(CCCCO)CC2)CC1 [Example 1, (3-(4-hydroxybutyl)-3-azaspiro[5.5]undecane-9,9-diyl)bis(methylene) bis(2-heptylnonanoate)] | 1.7 ng/well | 1.2 ng/well | 76 nm | 0.04 | 78 nm | 0.050 | 100% | 99% | 13.9 ng/well | 18.3 ng/well
CCCCCCCC(CCCCCCC)C(=O)OCC(COC(=O)C(CCCCCCC)CCCCCCC)C1CCC2(CC1)CCN(CCCCO)CC2 [Example 2, 2-(3-(4-hydroxybutyl)-3-azaspiro[5.5]undecan-9-yl)propane-1,3-diyl bis(2-heptylnonanoate)] | 2.5 ng/well | 1.6 ng/well | 93 nm | 0.06 | 92 nm | 0.040 | 100% | 99% | 14.5 ng/well | 28.1 ng/well
CCCCCCCC(CCCCCCC)C(=O)OCC(COC(=O)C(CCCCCCC)CCCCCCC)N1CCC2(CCN(CCCCO)CC2)CC1 [Example 3, 2-(9-(4-Hydroxybutyl)-3,9-diazaspiro[5.5]undecan-3-yl)propane-1,3-diyl bis(2-heptylnonanoate)] | 2.8 ng/well | 1.7 ng/well | 152 nm | 0.07 | 90 nm | 0.040 | 100% | 99% | 11.9 ng/well | 18.4 ng/well
CCCCCCCC(CCCCCCC)CCC(=O)OCC(COC(=O)CCC(CCCCCCC)CCCCCCC)N1CCC2(CCN(CCCCO)CC2)CC1 [Example 40, 2-(9-(4-hydroxybutyl)-3,9-diazaspiro[5.5]undecan-3-yl)propane-1,3-diyl bis(4-heptylundecanoate)] | 5.6 ng/well | 3.6 ng/well |  |  | 117 nm | 0.080 | 100% |  |  | 
CCCCCCCC(CCCCCCC)C(=O)OCC(COC(=O)C(CCCCCCC)CCCCCCC)N1CCC2(CCN(CCCCCO)C2)C1 (centres unmarked) [Example 41, 2-(7-(5-hydroxypentyl)-2,7-diazaspiro [4.4]nonan-2-yl)propane-1,3-diyl bis(2-heptylnonanoate)] | 0.20 ng/well | 0.30 ng/well |  |  | 119 nm | 0.060 | 99% |  |  | 
CCCCCCCCCC(=O)OCC(COC(=O)C(CCCCCC)CCCCCCCC)N1CCC2(CCN(CCCCO)CC2)CC1 (centres unmarked) [Example 42, 3-(decanoyloxy)-2-(9-(4-hydroxybutyl)-3,9-diazaspiro[5.5]undecan-3-yl)propyl 2-hexyldecanoate] | 42.7 ng/well | >50 ng/well |  |  | 100 nm | 0.080 | 99% |  |  | 
CCCCCC/C=C\CCCC(=O)OCC(COC(=O)C(CCCCCC)CCCCCCCC)N1CCC2(CCN(CCCCO)CC2)CC1 (centres unmarked) [Example 43, 3-((2-hexyldecanoyl)oxy)-2-(9-(4-hydroxybutyl)-3,9-diazaspiro[5.5]undecan-3-yl)propyl (Z)-dodec-5-enoate] | 33.3 ng/well | 14.2 ng/well |  |  | 89 nm | 0.111 | 99% |  |  | 
CCCCCCCCC(CCCCCC)C(=O)OCC(COC(=O)C(CCCCCCCC)CC1CCC1)N1CCC2(CCN(CCCCO)CC2)CC1 (centres unmarked) [Example 44, 3-((2-(cyclobutylmethyl)decanoyl)oxy)-2-(9-(4-hydroxybutyl)-3,9-diazaspiro[5.5]undecan-3-yl)propyl 2-hexyldecanoate] | 0.28 ng/well | 0.30 ng/well |  |  | 119 nm | 0.080 | 99% |  |  | 
CCCCCCCCCC(CCCC)C(=O)OCC(COC(=O)C(CCCCCC)CCCCCCCC)N1CCC2(CCN(CCCCO)CC2)CC1 (centres unmarked) [Example 45, 3-((2-hexyldecanoyl)oxy)-2-(9-(4-hydroxybutyl)-3,9-diazaspiro[5.5]undecan-3-yl)propyl 2-butylundecanoate] | 1.1 ng/well | 1.1 ng/well |  |  | 117 nm | 0.060 | 99% |  |  | 
CCCCCCCCCCCCCCCC(=O)OCC(COC(=O)CCC(CCCC)C(CCCC)CCCC)N1CCC2(CCN(CCCCO)CC2)CC1 (centres unmarked) [Example 46, 3-((4,5-dibutylnonanoyl)oxy)-2-(9-(4-hydroxybutyl)-3,9-diazaspiro[5.5]undecan-3-yl)propyl palmitate] | 24.6 ng/well | 1.7 ng/well |  |  | 92 nm | 0.090 | 99% |  |  | 
CCCCCCCC(CCCCCCC)C(=O)OCCC(CCOC(=O)C(CCCCCCC)CCCCCCC)N1CCC2(CCN(CCCCO)CC2)CC1 [Example 47, 3-(9-(4-hydroxybutyl)-3,9-diazaspiro[5.5]undecan-3-yl)pentane-1,5-diyl bis(2-heptylnonanoate)] | 5.9 ng/well | 4.6 ng/well |  |  | 147 nm | 0.080 | 99% |  |  | 
CCCCCCCC(CCCCCCC)C(=O)OCC(COC(=O)C(CCCCCCC)CCCCCCC)N1CCC2(CCN(CCCCCO)C2)CC1 [Example 48, 2-(2-(5-hydroxypentyl)-2,8-diazaspiro[4.5]decan-8-yl)propane-1,3-diyl bis(2-heptylnonanoate)] | 0.76 ng/well | 1.0 ng/well |  |  | 127 nm | 0.093 | 100% |  |  | 
CCCCCCCCC(CCCCCC)C(=O)OCC(COC(=O)C(CCCCCC)CCCCCCCC)N1CC2(CCN(CCCCCO)CC2)C1 (centres unmarked) [Example 49, 2-(7-(5-hydroxypentyl)-2,7-diazaspiro [3.5]nonan-2-yl)propane-1,3-diyl bis(2-hexyldecanoate)] | 0.41 ng/well | 1.4 ng/well |  |  | 160 nm | 0.110 | 99% |  |  | 
CCCCCCCCC(CCCCCC)C(=O)OCC(COC(=O)C(CCCCCC)CCCCCCCC)N1CCC2(CC1)CN(CCCCO)C2 (centres unmarked) [Example 50, 2-(2-(4-hydroxybutyl)-2,7-diazaspiro[3.5]nonan-7-yl)propane-1,3-diyl bis(2-hexyldecanoate)] | 0.56 ng/well | 0.74 ng/well |  |  | 120 nm | 0.046 | 99% |  |  | 
